Source: US6492370B1, “Urea derivatives and pharmaceutical compositions thereof” (Santen Pharmaceutical Co., Ltd., priority 1998, dated 2002)

Experiments:
[1] = test system: TNF-α production from human monocytic line THP-1 by LPS stimulation; assay: In vitro test: TNF-α production from human monocytic line THP-1 by LPS stimulation; type: cell-based; details: 2 h; test compound 10^−5 M, THP-1 cells 10^6/ml, LPS 2 μg/ml, 37° C. for two hours, human TNF-α specific ELISA; read-out: Inhibition rate (%) (TNF-α inhibition rates)
Experimental: (§1) Inhibitory effects on TNF-α production induced by lipopolysaccharide (LPS) stimulation were studied by in vitro or in vivo tests according to the method of McGeehan et al. (Nature, 370, […](1994)).
Analyses were carried out by measuring TNF-α production from human monocytic line THP-1 by LPS stimulation.
As a medium, an RPMI1640medium containing a fetal bovine serum(10%), L-glutamine (2 mM), 2-mercaptoethanol (50 μM), penicillin (50 units/ml) and streptomycin (50 μg/ml) was used.
With respect to cells, human monocytic line THP-1 cells cultured in the above-mentioned medium were centrifuged at 100×g for five minutes to remove supernatant and then re-suspended in the medium. With respect to LPS, LPS from S. Typhimurium was dissolved in purified water and then diluted with the medium. Test compounds were dissolved in dimethyl sulfoxide (DMSO) and then diluted with the medium.
The cells (10^6/ml), LPS (2 μg/ml) and the test compound (10^−5 M) prepared as mentioned above were mixed, and this mixture was incubated at 37° C. for two hours and then centrifuged at 1000×g […] in cultured supernatant were measured with a human TNF-α specific ELISA kit. TNF-α production was not observed in the cultured supernatant in the absence of LPS (control).
(§2) TNF-α production inhibition rates of the test compounds were determined by the following equation.
(§3) Inhibition rate (%)=[(A-B)/A]×100
A: TNF-α level in supernatant of culture medium in the absence of test compound
B: TNF-α level in supernatant of culture medium in the presence of test compound

[2] = test system: TNF-α production induced by lipopolysaccharide (LPS) stimulation; assay: In vivo test: TNF-α levels in plasma of LPS-administered rats; parameters: species or system rat; details: female rats, oral administration of 50 mg/kg immediately after subcutaneous LPS, plasma two hours after LPS; for inhibition in vivo at 50 mg/kg: Rattus norvegicus, 2 h, read-out: Inhibition rate (%) (TNF-α production inhibition rates)
Experimental: as §1
Female rats (five per group), body weight of about 200 g,about eight weeks old, were used as test animals. With respect to LPS to be used, LPS from Salmonella was dissolved in physiological saline (1 mg/ml). Test compounds were dissolved or uniformly suspended in a 1% aqueous methylcellulose solution.
The above-mentioned LPS solution (0.5 ml/kg) was subcutaneously administered to the rat. Immediately after the LPS administration, the test compound preparation liquid (5 ml/kg, containing 50 mg/kg test compound) was orally administered. Two hours after the LPS administration, blood was collected from abdominal aorta and was centrifuged at 4° C. and 3000 rpm for ten minutes. TNF-α levels in the obtained plasma were measured with a rat TNF-α-specific ELISA kit. TNF-α was not observed in the plasma with respect to an LPS-nonadministered group (control).
as §2, §3
A: TNF-α level in plasma of test compound-nonadministered group
B: TNF-α level in plasma of test compound-administered group

SMILES	melting point	inhibition at 10 µM [1]	inhibition in vivo at 50 mg/kg [2]	other results
CC(=O)SCCN(CCc1ccccc1)C(=O)N[C@@H](Cc1ccc([N+](=O)[O-])cc1)C(=O)NCCN1C(=O)c2ccccc2C1=O [Compound No. 27-45, (2S)-2-[3-[2-(Acetylthio)ethyl]-3-phenethylureido]-3-(4-nitrophenyl)-N-[2-(phthalimido)ethyl]propionamide]	110 °C	–	–	–
CC(=O)SCCN(CCc1ccccc1)C(=O)N[C@@H](Cc1ccc(-c2ccccc2)c([N+](=O)[O-])c1)C(=O)NCCN(C)C [Compound No. 27-19, (2S)-2-[3-[2-(Acetylthio)ethyl]-3-phenethylureido]-N-[2-(dimethylamino)ethyl]-3-(2-nitro-4-biphenylyl)propionamide]	90 °C	93.5%	–	–
CCN(CC)CCNC(=O)[C@H](Cc1ccc([N+](=O)[O-])cc1)NC(=O)N(CCSC(C)=O)CCc1ccccc1 [Compound No. 27-47, (2S)-2-[3-[2-(Acetylthio)ethyl]-3-phenethylureido]-N-[2-(diethylamino)ethyl]-3-(4-nitrophenyl)propionamide]	65 °C	100%	–	–
CC(=O)SCCN(CCc1ccccc1)C(=O)N[C@@H](Cc1ccc(-c2ccccc2)cc1)C(=O)NCCN(C)C [Compound No. 27-59, (2S)-2-[3-[2-(Acetylthio)ethyl]-3-phenethylureido]-3-(4-biphenylyl)-N-[2-(dimethylamino)ethyl]propionamide]	–	100%	–	–
CC(=O)SCCN(CCC1CCCCC1)C(=O)N[C@@H](C)C(=O)N1CCOCC1 [Compound No. 13-50, 4-[(2S)-2-[3-[2-(Acetylthio)ethyl]-3-(2-cyclohexylethyl)ureido]propionyl]morpholine]	–	–	93.5%	–
CC(=O)SCCN(CCC1CCCC1)C(=O)N[C@@H](C)C(=O)N1CCN(C)CC1 [Compound No. 13-57, 1-[(2S)-2-[3-[2-(Acetylthio)ethyl]-3-(2-cyclopentylethyl)ureido]propionyl]-4-methylpiperazine]	–	–	90.1%	–
CSCCC(NC(=O)N(CCSC(C)=O)CCc1ccccc1)C(=O)N1CCN(C)CC1 (racemic) [Compound No. 27-4, 1-[(2RS)-2-[3-[2-(Acetylthio)ethyl]-3-phenethylureido]-4-(methylthio)butyryl]-4-methylpiperazine]	–	–	60.9%	–
CC(=O)SCCN(CCc1ccccc1)C(=O)N[C@@H](Cc1ccc(Cl)cc1)C(=O)NCCN(C)C [Compound No. 27-17, (2S)-2-[3-[2-(Acetylthio)ethyl]-3-phenethylureido]-3-(4-chlorophenyl)-N-[2-(dimethylamino)ethyl]propionamide]	–	93.5%	–	–
CC(=O)SCCN(CCC1=CCCCC1)C(=O)N[C@@H](C)C(=O)N1CCN(C)CC1 [Compound No. 27-84, 1-[(2S)-2-[3-[2-(Acetylthio)ethyl]-3-[2-(1-cyclohexenyl)ethyl]ureido]propionyl]-4-methylpiperazine]	–	–	56.7%	–
CC(=O)SCCN(CCc1ccccc1)C(=O)N[C@@H](Cc1ccccc1)C(=O)N1CCN(CC(=O)O)CC1 [Compound No. 13-32, 1-[(2S)-2-[3-[2-(Acetylthio)ethyl]-3-phenethylureido]-3-phenylpropionyl]-4-(carboxymethyl)piperazine]	230 °C (dec.)	–	–	–
CC(=O)SCCN(CCc1ccccc1)C(=O)N[C@@H](Cc1ccc([N+](=O)[O-])cc1)C(=O)NCCN(C)C1CCCCC1 [Compound No. 27-46, (2S)-2-[3-[2-(Acetylthio)ethyl]-3-phenethylureido]-N-[2-[(N-methyl)cyclohexylamino]ethyl]-3-(4-nitrophenyl)propionamide]	90 °C	100%	–	–
CC(=O)SCCN(CCCc1ccccc1)C(=O)N[C@@H](C)C(=O)N1CCN(C)CC1 [Compound No. 13-12, 1-[(2S)-2-[3-[2-(Acetylthio)ethyl]-3-(3-phenylpropyl)ureido]propionyl]-4-methylpiperazine]	–	–	62.3%	–
CC(=O)SCCN(CCc1ccccc1)C(=O)N[C@@H](Cc1ccc([N+](=O)[O-])cc1)C(=O)NCCN(C(C)C)C(C)C [Compound No. 27-10]	–	100%	–	–
CC(=O)SCCN(CCc1ccccc1)C(=O)NCC(=O)N1CCN(C)CC1 [Compound No. 13-20, 1-[2-[3-[2-(Acetylthio)ethyl]-3-phenethylureido]acetyl]-4-methylpiperazine]	–	–	66.6%	–
CC(=O)SCCN(CCc1ccccc1)C(=O)N[C@@H](Cc1ccc2ccccc2c1)C(=O)NCCN(C)C [Compound No. 27-58, (2S)-2-[3-[2-(Acetylthio)ethyl]-3-phenethylureido]-N-[2-(dimethylamino)ethyl]-3-(2-naphthyl)propionamide]	–	100%	–	–
CC(=O)Nc1ccc(C[C@H](NC(=O)N(CCSC(C)=O)CCc2ccccc2)C(=O)NCCN(C)C)cc1 [Compound No. 27-82, (2S)-3-[4-(Acetylamino)phenyl]-2-[3-[2-(acetylthio)ethyl]-3-phenethylureido]-N-[2-(dimethylamino)ethyl]propionamide]	95 °C (dec.)	–	–	–
CC(=O)SCCN(CCc1ccccc1)C(=O)N[C@@H](Cc1ccc([N+](=O)[O-])cc1)C(=O)NCCN(C)C [Compound No. 27-41, (2S)-2-[3-[2-(Acetylthio)ethyl]-3-phenethylureido]-N-[2-(dimethylamino)ethyl]-3-(4-nitrophenyl)propionamide]	–	93.8%	–	–
COc1ccc(C[C@H](NC(=O)N(CCSC(C)=O)CCc2ccccc2)C(=O)NCCN(C)C)cc1 [Compound No. 27-56, (2S)-2-[3-[2-(Acetylthio)ethyl]-3-phenethylureido]-N-[2-(dimethylamino)ethyl]-3-(4-methoxyphenyl)propionamide]	–	96.9%	–	–
CC(=O)SCCN(C(=O)N[C@@H](C)C(=O)N1CCN(C)CC1)c1ccccc1 [Compound No. 13-17, 1-[(2S)-2-[3-[2-(Acetylthio)ethyl]-3-phenylureido]propionyl]-4-methylpiperazine]	–	–	50.3%	–
CC(=O)SCCN(CCC1CCCCC1)C(=O)N[C@@H](C)C(=O)N1CCN(C)CC1 [Compound No. 13-1, 1-[(2S)-2-[3-[2-(Acetylthio)ethyl]-3-(2-cyclohexylethyl)ureido]propionyl]-4-methylpiperazine]	–	–	84.6%	–
CC(=O)SCCN(CCc1ccccc1)C(=O)N[C@@H](Cc1ccc([N+](=O)[O-])cc1)C(=O)NCCc1ccccn1 [Compound No. 27-50, (2S)-2-[3-[2-(Acetylthio)ethyl]-3-phenethylureido]-3-(4-nitrophenyl)-N-[2-(2-pyridyl)ethyl]propionamide]	106 to 112.5 °C	–	–	–
CC(=O)SCCN(CCOc1ccccc1)C(=O)N[C@@H](C)C(=O)N1CCN(C)CC1 [Compound No. 13-16]	–	–	–	Inhibition rate (%) (TNF-α production inhibition rates) [2]: 54.1%
CC(=O)SCCN(CCc1ccccc1)C(=O)N[C@@H](Cc1ccc(F)cc1)C(=O)NCCN(C)C [Compound No. 27-54, (2S)-2-[3-[2-(Acetylthio)ethyl]-3-phenethylureido]-N-[2-(dimethylamino)ethyl]-3-(4-fluorophenyl)propionamide]	90 °C	–	–	–
CC(=O)SCCN(CCc1ccccc1)C(=O)N[C@H](C)C(=O)N1CCN(C)CC1 [Compound No. 13-3, 1-[(2R)-2-[3-[2-(Acetylthio)ethyl]-3-phenethylureido]propionyl]-4-methylpiperazine]	–	–	66.8%	–
CN(C)CCNC(=O)[C@H](Cc1ccc([N+](=O)[O-])cc1)NC(=O)N(CCSC(=O)c1ccccc1)CCc1ccccc1 [Compound No. 27-42, (2S)-2-[3-[2-(Benzoylthio)ethyl]-3-phenethylureido]-N-[2-(dimethylamino)ethyl]-3-(4-nitrophenyl)propionamide]	–	100%	–	–
CC(=O)SCCN(CCC1CCCCC1)C(=O)N[C@@H](C)C(=O)N1CCCCC1 [Compound No. 13-49, 1-[(2S)-2-[3-[2-(Acetylthio)ethyl]-3-(2-cyclohexylethyl)ureido]propionyl]piperidine]	–	–	90%	–
